The test deals with P388 leukemia ip, CD2F1 mice, survival T/C. In words: NCI In Vivo Anticancer Drug Screen. Data for tumor model P388 Leukemia (intraperitoneal) in CD2F1 (CDF1) mice. Particulars: endpoint: median survival time, higher = longer survival. The procedure, abridged: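 Mice carrying the transplanted tumor received test compound or vehicle. Survival was recorded in each group, and the value is the treated-group measurement divided by that of the vehicle-treated control group.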

Where [1] appears, read: dose: 50.0 mg/kg/injection, schedule: Q01DX005 (ip), vehicle: saline with Tween-80.
Setting [2] is: dose: 60.0 mg/kg/injection, schedule: Q01DX005 (ip), vehicle: saline with Tween-80.
Where [3] appears, read: dose: 120.0 mg/kg/injection, schedule: Q01DX005 (ip), vehicle: saline with Tween-80.
The mark [4] stands for this setting: dose: 100.0 mg/kg/injection, schedule: Q01DX005 (ip), vehicle: saline with Tween-80.
The mark [5] stands for this setting: dose: 200.0 mg/kg/injection, schedule: Q01DX005 (ip), vehicle: saline with Tween-80.
The mark [6] stands for this setting: dose: 12.5 mg/kg/injection, schedule: Q01DX009 (ip), vehicle: saline with Tween-80.
Where [7] appears, read: dose: 25.0 mg/kg/injection, schedule: Q01DX009 (ip), vehicle: saline with Tween-80.
Setting [8] is: dose: 50.0 mg/kg/injection, schedule: Q01DX009 (ip), vehicle: saline with Tween-80.
[9] abbreviates: dose: 15.0 mg/kg/injection, schedule: Q01DX005 (ip), vehicle: saline with Tween-80.
Setting [10] is: dose: 30.0 mg/kg/injection, schedule: Q01DX005 (ip), vehicle: saline with Tween-80.

Several values for one entry are separate records, joined by “and”; a condition that tells them apart may be missing. Equal entries are not always repeated. Inconclusive results and toxic doses are left out.

Take `CCN(CC)c1ccc(C(=C2C=CC(=[N+](CC)CC)C=C2)c2ccc(N(CC)CC)cc2)cc1`: under setting [1], the T/C is 113 % of control and 120 % of control.

Take `Brc1ccc(-c2nc3sc(-c4ccc5c(c4)OCO5)nn3c2Br)cc1`: the T/C reads like this: under setting [2], 100 % of control; under setting [3], 100 % of control; (dose: 240.0 mg/kg/injection, schedule: Q01DX005 (ip), vehicle: saline with Tween-80) 93 % of control.

For the molecule `COc1cc(OCc2ccccc2)c(O)cc1-c1coc2cc(OCc3ccccc3)ccc2c1=O`, the T/C (dose: 100.0 mg/kg/injection, schedule: Q01DX001 (ip), vehicle: Klucel (hydroxypropylcellulose) (HPC)) was 96 % of control; the T/C (dose: 200.0 mg/kg/injection, schedule: Q01DX001 (ip), vehicle: Klucel (hydroxypropylcellulose) (HPC)) was 100 % of control; the T/C (dose: 400.0 mg/kg/injection, schedule: Q01DX001 (ip), vehicle: Klucel (hydroxypropylcellulose) (HPC)) was 94 % of control.

Regarding `O=C1Nc2ccccc2/C1=N/N(c1ccccc1)c1ccccc1`, the T/C reads like this: under setting [1], 95 % of control; under setting [4], 101 % of control; under setting [5], 99 % of control.

`C=C(C)C12CC(C)C34OC5(CCCCCCCC(C)C6C(C)C(OC(=O)c7ccccc7)C(O)(C(O)C7(CO)OC7C3C1O5)C64)O2` (stereo not drawn): the T/C reads like this: (dose: 3.0 micrograms/kg/injection, schedule: Q01DX009 (ip), vehicle: saline + alcohol) 107 % of control; (dose: 5.0 micrograms/kg/injection, schedule: Q01DX009 (ip), vehicle: saline + alcohol) 109 % of control; (dose: 10.0 micrograms/kg/injection, schedule: Q01DX009 (ip), vehicle: saline + alcohol) 118 % of control.

For `COc1ccc2c(c1OC)C(=C(C#N)C#N)N1CCc3cc4c(cc3C1=C2)OCO4`, the T/C is 103 % of control (dose: 0.63 mg/kg/injection, schedule: Q01DX009 (ip), vehicle: distilled water + Tween-80); 94 % of control (dose: 1.25 mg/kg/injection, schedule: Q01DX009 (ip), vehicle: distilled water + Tween-80); 112 % of control (dose: 2.5 mg/kg/injection, schedule: Q01DX009 (ip), vehicle: distilled water + Tween-80); 112 % of control (dose: 5.0 mg/kg/injection, schedule: Q01DX009 (ip), vehicle: distilled water + Tween-80); 108 % of control (dose: 10.0 mg/kg/injection, schedule: Q01DX009 (ip), vehicle: distilled water + Tween-80); 121 % of control (dose: 20.0 mg/kg/injection, schedule: Q01DX009 (ip), vehicle: distilled water + Tween-80).

Turning to `CC(NC(=O)C(C)NC(=O)OC(C)(C)C)C(=O)O` (stereo not drawn), the T/C under setting [1] was 100 % of control, the T/C under setting [4] was 101 % of control and the T/C under setting [5] was 101 % of control.

For the molecule `CCN1c2ccccc2CC(CCN(C)Cc2ccccc2)(C(N)=O)c2ccccc21` (stereo not drawn), the T/C under setting [6] is 92 % of control, the T/C under setting [7] is 99 % of control and the T/C under setting [8] is 100 % of control.

Turning to `C=C1C(O)CC2C(O)C3(C)CCC(C)(C)C3C12O` (stereo not drawn), the T/C was 106 % of control (dose: 18.75 mg/kg/injection, schedule: Q01DX009 (ip), vehicle: other); 98 % of control (dose: 37.5 mg/kg/injection, schedule: Q01DX009 (ip), vehicle: other); 100 % of control (dose: 75.0 mg/kg/injection, schedule: Q01DX009 (ip), vehicle: other); 93 % of control (dose: 150.0 mg/kg/injection, schedule: Q01DX009 (ip), vehicle: other).

On to `C[Si](C)(CCCNCCN)O[Si](C)(C)CCCNCCN`, for which the T/C runs as follows: under setting [9], 104 % of control; under setting [10], 118 % of control; under setting [2], 94 % of control and 96 % of control.

Turning to `O=C1C(N=Nc2ccc(S(=O)(=O)Nc3ccccn3)cc2)C(=O)N(c2ccccc2)C(=S)N1c1ccccc1`, the T/C is, setting by setting: (dose: 60.0 mg/kg/injection, schedule: Q01DX005 (ip), vehicle: saline) 95 % of control; (dose: 120.0 mg/kg/injection, schedule: Q01DX005 (ip), vehicle: saline) 104 % of control; (dose: 240.0 mg/kg/injection, schedule: Q01DX005 (ip), vehicle: saline) 100 % of control.

For `CC(C)=Nn1c(=O)oc2cc(Cl)ccc2c1=O`, the T/C (dose: 60.0 mg/kg/injection, schedule: Q01DX005 (ip), vehicle: Klucel (hydroxypropylcellulose) (HPC)) was 95 % of control; the T/C (dose: 120.0 mg/kg/injection, schedule: Q01DX005 (ip), vehicle: Klucel (hydroxypropylcellulose) (HPC)) is 100 % of control; the T/C (dose: 240.0 mg/kg/injection, schedule: Q01DX005 (ip), vehicle: Klucel (hydroxypropylcellulose) (HPC)) was 93 % of control.

For `N#Cc1c(NC(=O)Nc2cc(C(F)(F)F)ccc2Cl)sc(=S)c2c1CCCC2`, the T/C is 100 % of control under setting [1] and 103 % of control under setting [4].

As for `O=C(Nc1ccc(C(=O)O)cc1)Nc1nccs1`, the T/C reads like this: (dose: 12.5 mg/kg/injection, schedule: Q01DX009 (ip), vehicle: distilled water + Tween-80) 89 % of control; (dose: 25.0 mg/kg/injection, schedule: Q01DX009 (ip), vehicle: distilled water + Tween-80) 118 % of control; (dose: 50.0 mg/kg/injection, schedule: Q01DX009 (ip), vehicle: distilled water + Tween-80) 122 % of control; (dose: 100.0 mg/kg/injection, schedule: Q01DX009 (ip), vehicle: distilled water + Tween-80) 150 % of control; (dose: 200.0 mg/kg/injection, schedule: Q01DX009 (ip), vehicle: distilled water + Tween-80) 163 % of control.

`CCCCOC(=O)CC(C(=O)OCCCC)C(C(=O)OCCCC)P(=O)(OCCCC)OCCCC` (stereo not drawn): the T/C runs as follows: under setting [1], 99 % of control; under setting [4], 100 % of control; under setting [5], 98 % of control.

For `O=[N+]([O-])c1ccc(-c2sc(-c3ccccc3)nc2O)cc1`, the T/C under setting [6] was 100 % of control; the T/C under setting [7] is 98 % of control; the T/C under setting [8] was 91 % of control and 94 % of control; the T/C (dose: 200.0 mg/kg/injection, schedule: Q01DX009 (ip), vehicle: saline with Tween-80) was 88 % of control.

With `Cc1c(O)c2ccc(N(C)C)cc2[nH]c1=O`, the T/C by setting is: under setting [1], 101 % of control; under setting [4], 95 % of control; under setting [5], 100 % of control.

As to `CCOC(=O)CC1=CS/C(=C(/C#N)C(=O)OCC)S1`, the T/C was 93 % of control under setting [1], 98 % of control under setting [4] and 94 % of control under setting [5].

On to `C[CH2][Sn]([CH2]C)([O]S(C)(=O)=O)[O]S(C)(=O)=O`, for which the T/C was 114 % of control (dose: 1.56 mg/kg/injection, schedule: Q04DX003 (ip), vehicle: saline); 117 % of control and 118 % of control (dose: 6.25 mg/kg/injection, schedule: Q04DX003 (ip), vehicle: saline); 164 % of control (dose: 12.5 mg/kg/injection, schedule: Q04DX003 (ip), vehicle: saline).

Take `CSc1nc(SC)c2c(CNC(C)=O)cn(Cc3ccccc3)c2n1`: the T/C (dose: 50.0 mg/kg/injection, schedule: Q01DX001 (ip), vehicle: saline with Tween-80) was 87 % of control; the T/C (dose: 200.0 mg/kg/injection, schedule: Q01DX001 (ip), vehicle: saline with Tween-80) is 86 % of control and 87 % of control.

As for `COc1ccc2c(c1)N=C(NNC1=Nc3cc(OC)ccc3SC1)CS2`, the T/C under setting [9] was 113 % of control and 97 % of control; the T/C under setting [10] is 101 % of control and 102 % of control; the T/C under setting [2] was 100 % of control and 91 % of control.

`Cc1cc(O)c(N=Nc2cc(C)c(C)cc2[N+](=O)[O-])cc1C`: the T/C reads like this: (dose: 50.0 mg/kg/injection, schedule: Q01DX009 (ip), vehicle: Klucel (hydroxypropylcellulose) (HPC)) 109 % of control; (dose: 100.0 mg/kg/injection, schedule: Q01DX009 (ip), vehicle: Klucel (hydroxypropylcellulose) (HPC)) 109 % of control; (dose: 200.0 mg/kg/injection, schedule: Q01DX009 (ip), vehicle: Klucel (hydroxypropylcellulose) (HPC)) 101 % of control.

With `CCCCCOC(=O)c1ccc(O)cc1`, the T/C under setting [6] was 108 % of control; the T/C under setting [7] was 100 % of control; the T/C under setting [8] is 99 % of control and 100 % of control; the T/C (dose: 100.0 mg/kg/injection, schedule: Q01DX009 (ip), vehicle: saline with Tween-80) is 94 % of control.

In the case of `COc1ccc(/C=C/C(=O)C(C)(C)CN(C)CCN(C)C)cc1`, the T/C under setting [2] is 100 % of control and the T/C under setting [3] is 109 % of control.

On to `COC(=O)C12C3c4ccccc4C1C2c1ccccc13` (stereo not drawn), for which the T/C was 99 % of control (dose: 100.0 mg/kg/injection, schedule: Q04DX002 (ip), vehicle: saline); 94 % of control (dose: 200.0 mg/kg/injection, schedule: Q04DX002 (ip), vehicle: saline); 96 % of control (dose: 400.0 mg/kg/injection, schedule: Q04DX002 (ip), vehicle: saline).

Values taken from PubChem BioAssay AID330 (DTP/NCI, 2004).
